These results are taken from ChEMBL document CHEMBL5365419, “Identification of a Protein Arginine Methyltransferase 7 (PRMT7)/Protein Arginine Methyltransferase 9 (PRMT9) Inhibitor” (J Med Chem, 2023).

What is called inhibition is the drop in the measured response relative to a control, in per cent.

In assay [1] the target is T1, Protein arginine N-methyltransferase 9 (Homo sapiens) (UniProt Q6P2P2).
T1 sequence (whole entry): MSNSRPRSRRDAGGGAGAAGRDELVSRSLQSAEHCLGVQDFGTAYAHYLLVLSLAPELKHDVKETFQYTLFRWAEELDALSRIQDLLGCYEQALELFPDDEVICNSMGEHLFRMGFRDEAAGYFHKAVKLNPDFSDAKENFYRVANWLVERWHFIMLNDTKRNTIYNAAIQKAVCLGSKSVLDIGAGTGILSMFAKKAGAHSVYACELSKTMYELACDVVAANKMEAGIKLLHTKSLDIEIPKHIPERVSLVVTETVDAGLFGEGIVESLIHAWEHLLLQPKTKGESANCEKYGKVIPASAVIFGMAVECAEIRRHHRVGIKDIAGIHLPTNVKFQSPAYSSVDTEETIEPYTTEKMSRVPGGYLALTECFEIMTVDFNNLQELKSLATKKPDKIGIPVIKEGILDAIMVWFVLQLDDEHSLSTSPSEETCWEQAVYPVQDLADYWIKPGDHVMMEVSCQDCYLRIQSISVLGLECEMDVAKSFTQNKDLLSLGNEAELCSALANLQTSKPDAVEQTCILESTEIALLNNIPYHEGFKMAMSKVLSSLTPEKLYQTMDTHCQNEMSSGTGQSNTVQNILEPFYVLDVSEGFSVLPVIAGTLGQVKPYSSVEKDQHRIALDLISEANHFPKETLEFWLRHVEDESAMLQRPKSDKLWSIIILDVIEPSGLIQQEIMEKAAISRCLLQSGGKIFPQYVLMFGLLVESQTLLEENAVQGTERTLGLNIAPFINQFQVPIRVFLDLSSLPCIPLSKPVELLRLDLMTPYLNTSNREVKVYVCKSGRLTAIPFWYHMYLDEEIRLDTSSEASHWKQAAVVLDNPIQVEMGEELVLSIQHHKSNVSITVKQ
Briefly: Inhibition of human GST-fused PRMT9 expressed in Escherichia coli at 100 uM using human GST-SF3B2 (401 to 550 residues) peptide as substrate and human histone H2B as cosubstrate incubated under 37 degreeC in presence of 3H-SAM by SDS-PAGE based densitometric analysis.

Assay [2] has as its target T1, Protein arginine N-methyltransferase 9 (Homo sapiens). Briefly: Inhibition of human recombinant PRMT9 using biotinylated SF3B2(500 to 519 residues) as substrate and SAM as cosubstrate pre-incubated with compound for 30 mins followed by substrate addition measured after 60 mins by AlphaLISA assay. The settings on record: time 90.0 min.
For assay [3] the target is unchanged. In words: Inhibition of PRMT9 catalysed SF3B2 R508 methylation in human MCF7 cells upto 100 uM measured after 72 hrs by immunoblotting analysis. The format is cell-based.
The target is the same in assay [4]. Briefly: Inhibition of PRMT9 catalysed SF3B2 R508 methylation in human MDA-MB-436 cells upto 100 uM measured after 72 hrs by immunoblotting analysis. The class given is cell-based. On the technique in general: In western blotting, separated proteins are transferred to a membrane and probed.
Assay [5] concerns Caenorhabditis elegans. In words: Inhibition of Caenorhabditis elegans GST-fused PRMT9 expressed in Escherichia coli at 25 to 50 uM using Caenorhabditis elegans GST-SFTB2 (99 to 248 residues) peptide as substrate and human histone H2B as cosubstrate incubated under 25 degreeC in presence of 3H-SAM by SDS-PAGE based densitometric analysis relative to control. The settings on record: dose 25-50 µM.

Assay [6] has as its target T2, Protein arginine N-methyltransferase 7 (Homo sapiens) (UniProt Q9NVM4).
T2 sequence (whole entry): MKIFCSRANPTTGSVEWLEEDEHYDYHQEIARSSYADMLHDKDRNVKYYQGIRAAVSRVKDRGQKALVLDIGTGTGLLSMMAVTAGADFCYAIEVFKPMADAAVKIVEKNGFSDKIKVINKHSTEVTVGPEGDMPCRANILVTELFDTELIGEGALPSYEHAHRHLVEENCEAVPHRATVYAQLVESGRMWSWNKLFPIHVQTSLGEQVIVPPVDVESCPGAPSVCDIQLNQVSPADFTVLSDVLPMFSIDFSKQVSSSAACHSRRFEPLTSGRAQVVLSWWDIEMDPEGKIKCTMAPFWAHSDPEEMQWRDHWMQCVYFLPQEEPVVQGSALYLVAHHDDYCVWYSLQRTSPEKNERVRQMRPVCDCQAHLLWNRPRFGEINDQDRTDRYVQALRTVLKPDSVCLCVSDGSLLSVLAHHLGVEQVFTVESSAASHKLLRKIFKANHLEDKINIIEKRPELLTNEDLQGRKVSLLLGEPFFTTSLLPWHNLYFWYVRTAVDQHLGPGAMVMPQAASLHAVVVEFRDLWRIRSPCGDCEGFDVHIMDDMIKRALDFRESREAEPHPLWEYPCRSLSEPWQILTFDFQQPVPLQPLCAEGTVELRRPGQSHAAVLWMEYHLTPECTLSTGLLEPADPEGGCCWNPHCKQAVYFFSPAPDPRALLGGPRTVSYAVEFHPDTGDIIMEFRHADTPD
Briefly: Inhibition of human GST-fused PRMT7 expressed in Escherichia coli at 100 uM using human GST-SF3B2 (401 to 550 residues) peptide as substrate and human histone H2B as cosubstrate incubated under 15 degreeC in presence of 3H-SAM by SDS-PAGE based densitometric analysis.

Assay [7] has as its target T1, Protein arginine N-methyltransferase 9 (Homo sapiens). Briefly: Inhibition of human GST-fused PRMT9 expressed in Escherichia coli at less than 5 uM using human GST-SF3B2 (401 to 550 residues) peptide as substrate and human histone H2B as cosubstrate incubated under 37 degreeC in presence of 3H-SAM by SDS-PAGE based densitometric analysis relative to control.
The target is the same in assay [8]. Briefly: Inhibition of human GST-fused PRMT9 expressed in Escherichia coli at 100 uM using human GST-SF3B2 (401 to 550 residues) peptide as substrate and human histone H2B as cosubstrate incubated under 37 degreeC in presence of 3H-SAM by SDS-PAGE based densitometric analysis relative to control.
Assay [9] concerns Caenorhabditis elegans. Briefly: Inhibition of Caenorhabditis elegans GST-fused PRMT9 expressed in Escherichia coli at 100 uM using Caenorhabditis elegans GST-SFTB2 (99 to 248 residues) peptide as substrate and human histone H2B as cosubstrate incubated under 25 degreeC in presence of 3H-SAM by SDS-PAGE based densitometric analysis relative to control.
Assay [10] deals with Caenorhabditis elegans. In words: Inhibition of Caenorhabditis elegans GST-fused PRMT7 expressed in Escherichia coli at 250 uM using Caenorhabditis elegans GST-SFTB-2 (99 to 248 residues) peptide as substrate and human histone H2B as cosubstrate incubated under 15 degreeC in presence of 3H-SAM by SDS-PAGE based densitometric analysis relative to control.
The target of assay [11] is T1, Protein arginine N-methyltransferase 9 (Homo sapiens). Briefly: Inhibition of human GST-fused PRMT9 expressed in Escherichia coli using human GST-SF3B2 (401 to 550 residues) peptide as substrate and human histone H2B as cosubstrate under 37 degreeC in presence of 3H-SAM by SDS-PAGE based densitometric analysis. The settings on record: dose 5-100 µM.
The subject of assay [12] is Caenorhabditis elegans. Briefly: Inhibition of Caenorhabditis elegans GST-fused PRMT7 expressed in Escherichia coli at 100 uM using Caenorhabditis elegans GST-SFTB-2 (99 to 248 residues) peptide as substrate and human histone H2B as cosubstrate incubated under 15 degreeC in presence of 3H-SAM by SDS-PAGE based densitometric analysis.
Assay [13] in a line: Selectivity ratio of human GST-fused PRMT9 to Caenorhabditis elegans GST-fused PRMT9.

Molecules are shown by their SMILES. The source made the active and inactive calls. No cut-off for these calls is given here.

Regarding `CSC[C@H]1O[C@@H](n2cnc3c(N)ncnc32)[C@H](O)[C@@H]1O`, in assay [1], the inhibition entry was “Active”.
In the case of `O=C(Nc1ccc2cc(C(=O)O)cc(O)c2c1)Nc1ccc2cc(C(=O)O)cc(O)c2c1`, the inhibition result in [2] is “inactive”.
Still for that read-out and setting: the value for `CCOC(=O)c1cc2cc(NC(=O)CNC(=O)Nc3ccc([N+](=O)[O-])cc3)ccc2[nH]1` was “inactive”.
For `COC(=O)c1cc(O)c2cc(NC(=O)NCCCCNC(=N)NCC[C@H]3O[C@@H](n4cnc5c(N)ncnc54)[C@H](O)[C@@H]3O)ccc2c1`, the inhibition result in [3] and in assay [4] was “inactive” throughout.
As to `O=C(CC(=O)Nc1ccc2[nH]cc(C(=O)O)c2c1)Nc1ccc2[nH]cc(C(=O)O)c2c1`, the inhibition result in assay [2] was “inactive”.
For `COC(=O)c1cc(O)c2cc(NC(=O)NCCCCNC(=N)NC[C@H]3O[C@@H](n4cnc5c(N)ncnc54)[C@H](O)[C@@H]3O)ccc2c1`, the inhibition is 50% in [5]; 50% in assay [7]; 100% in [8]; 100% in [9]; 50% in assay [10]; “Dose-Dependent Effect” in assay [11]. For the same compound, the inhibition entry in assay [6] is “Active”. The inhibition entry in assay [12] was “inactive”.
As to `COC(=O)c1cc(O)c2cc(NC(=O)Nc3ccc4cc(C(=O)OC)cc(O)c4c3)ccc2c1`, the inhibition entry in assay [2] was “inactive”.
`COC(=O)c1cc(O)c2cc(NC(=O)NCCCCCNC(=N)NC[C@H]3O[C@@H](n4cnc5c(N)ncnc54)[C@H](O)[C@@H]3O)ccc2c1`: the inhibition entry in [3], in assay [4] and in assay [12] was “inactive” throughout. The inhibition entry in [6] is “Active”. For the same compound, the Selectivity ratio in assay [13] was 5. The inhibition was 100% in [8], 100% in [9] and “Dose-Dependent Effect” in assay [11].
Take `O=C(Nc1ccc2[nH]cc(C(=O)O)c2c1)Nc1ccc2[nH]cc(C(=O)O)c2c1`: the inhibition result in assay [2] was “inactive”.
With `COC(=O)c1cc(O)c2cc(NC(=O)NCCCCCCCNC(=N)NC[C@H]3O[C@@H](n4cnc5c(N)ncnc54)[C@H](O)[C@@H]3O)ccc2c1`, the inhibition result in [3] and in assay [4] was “inactive” throughout.
Take `COC(=O)c1c[nH]c2ccc(NC(=O)CC(=O)Nc3ccc4[nH]cc(C(=O)OC)c4c3)cc12`: the inhibition result in assay [2] is “inactive”.
Take `COC(=O)c1cc(O)c2cc(NC(=O)NCCCNC(=N)NC[C@H]3O[C@@H](n4cnc5c(N)ncnc54)[C@H](O)[C@@H]3O)ccc2c1`: the inhibition was 50% in assay [5]; 50% in assay [7]; 100% in assay [8]; 100% in [9]; 50% in assay [10]; “Dose-Dependent Effect” in [11]. The inhibition entry in [3], in [4] and in assay [12] was “inactive” throughout.
